We go through 37 molecules from patent US20070219212A1, “Pyranouidole Derivatives and the Use Thereof for the Treatment of Hepatitis C Virus Infection or Disease” (priority 2004, published 2007).

The target of assay [1] is T1, NS5B from the BK strain (genotype 1b) (Hepatitis C virus genotype 1b, UniProt P26663).
T1 construct: NS5B from the BK strain (genotype 1b) is expressed in E coli as a protein in which the 21 C-terminal amino acids are replaced; made in house; host or cells: E. coli
Nature of the assay: Hepatitis C polymerase (NS5B, BK strain) inhibition, radioactive filter assay. Format: biochemical. Conditions: NS5B BK strain (genotype 1b). From the text: (§1) The ability of the compounds of the present invention to inhibit Hepatitis C Polymerase was established by the following experimental procedure:
NS5B from the BK strain (genotype 1b) is expressed in E coli as a protein in which the 21 C-terminal amino acids are replaced with a short linker and a hexahistidine tag ([…]). The purified protein is mixed with radioactive nucleotides and allowed to replicate a heteropolymeric RNA substrate, primed by an endogenous short hairpin, resulting in an approximately 760 nt product. The radioactive product is captured on a filter and quantitated after removal of the unincorporated nucleotides.
(§2) • 0.5M Na Phosphate buffer. Per liter, weigh 134 gr Na2HPO4.7H2O, add water to 900 ml. Adjust pH to 7.0 with phosphoric acid. Top off with water to 1 L. • Dilute nucleotides 1:1000 to 10 μM (GTP and CTP) or 1:100 to 100 μM (ATP and UTP) into RNase free water. Procedure: • (1) Compounds 10 μl at […] in 15% dimethylsulfoxide (DMSO) When starting from 100 μg/ml compound stock in 1% DMSO: Dispense 5 μl 30% DMSO per well Dispense 5 μl compound (100 μg/ml) per well. When starting from 50 μg/ml compound stock in 15% DMSO: Add 10 μl compound per well.
(§3) Add 20 μl enzyme mix into each well of the assay plate. Incubate compound and enzyme at room temperature for 15 minutes • (3) Template mix—prepare ahead
(§4) Spin down a tube of RNA (5 μg/tube stored in 75% ethanol and 0.3 M sodium acetate) in a microcentrifuge for 20 minutes at 4° C. One tube is enough for 1-1.5 plates. Remove as much ethanol from the tube as possible by inverting the tube. Be gentle, pellet RNA may not adhere to the tube. Vacuum dry the RNA. Resuspend the RNA by adding 1 ml of DEPC water, close the cap of the tube tightly. To dissolve RNA, incubate RNA solution on ice for ˜60 minutes and gently vortex. Spin briefly to ensure all RNA solution is down to the bottom of the tube before opening cap. Gently transfer RNA solution into a 5 ml or larger tube. Add another 3 ml of DEPC water (total 4 ml of volume).
(§5) Add the following volumes of reagents
(§6) Add 20 μl template mix per reaction (i.e. 20 ng of pOF per reaction or ˜3 nM) • (4) Incubate reaction at room temperature (22-25° C.) for 2 hours. • (5) Stop reaction by adding 50 μl of 170 mM EDTA.
(§7) Final concentration of EDTA is 85 mM. • (6) Prewet filters of Millipore multiscreen assay plate by adding 200 μl of 0.5 M sodium phosphate buffer, pH 7.0 into each well. Let stand at room temperature for 2-3 minutes. • (7) Place the multiscreen filter plate onto a Millipore Manifold and turn on vacuum to allow buffer to flow through. Turn off vacuum. Transfer 80 μl of the reaction product into each well of the filter plate. Let stand for 2-3 minutes. Turn on vacuum to filter reaction product. • (8) Turn off vacuum. Add 200 μl of 0.5 M sodium phosphate buffer, pH 7.0 into each well to wash filter. Turn on vacuum.
(§8) Repeat step (8) three more times. • (9) Remove polypropylene bottom. Spot dry filter at the bottom with paper towel. Air dry filter plate on a bench for 1 hour. Add 40 μl Super Mix scintillant. Seal top of the plate with a tape. Place plate into a Packard carrier or micro-beta carrier. • (10) Count plate using a Packard Topcount or micro-beta counter. Count (for example using Program 10) for ^33P in Top count or ^33P program in micro-beta.
(§9) See, Ferrari et al. 1999. J. Virology 73:1649-1654: “Characterization of soluble Hepatitis C virus RNA-dependent RNA polymerase expressed in E. coli and Takamizawa et al. 1991” and J. Virology 65:1105-1113: “Structure and characterization of the Hepatitis C virus genome isolated from human carriers,” both references are hereby incorporated by reference.

For assay [2], the target named is BB7 RNA-dependent RNA polymerase hepatitis C virus protein (Con1 HCV sequence) (Hepatitis C virus genotype 1b, UniProt Q9WMX2). As to the kind of experiment: Hepatitis C polymerase (BB7) inhibition. It is filed as biochemical.
BB7 RNA-dependent RNA polymerase hepatitis C virus protein (Con1 HCV sequence), sequence (Q9WMX2 2420-3010): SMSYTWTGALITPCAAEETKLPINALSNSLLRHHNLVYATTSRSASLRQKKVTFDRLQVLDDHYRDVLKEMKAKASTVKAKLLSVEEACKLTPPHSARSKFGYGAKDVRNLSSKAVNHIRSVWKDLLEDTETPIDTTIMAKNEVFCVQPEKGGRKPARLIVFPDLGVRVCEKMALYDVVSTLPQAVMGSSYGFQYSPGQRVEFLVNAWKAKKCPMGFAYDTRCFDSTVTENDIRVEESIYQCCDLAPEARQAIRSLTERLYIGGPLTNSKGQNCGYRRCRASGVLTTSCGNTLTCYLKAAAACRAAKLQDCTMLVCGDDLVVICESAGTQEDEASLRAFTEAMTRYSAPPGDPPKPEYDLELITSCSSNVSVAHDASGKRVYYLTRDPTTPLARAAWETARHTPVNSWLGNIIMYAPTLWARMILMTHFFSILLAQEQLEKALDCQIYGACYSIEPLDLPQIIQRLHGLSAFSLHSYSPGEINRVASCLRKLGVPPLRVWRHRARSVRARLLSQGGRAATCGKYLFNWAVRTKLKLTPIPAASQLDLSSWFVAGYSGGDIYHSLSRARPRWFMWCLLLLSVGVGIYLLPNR
Text: For purposes of this invention, the term “BB7” denotes an RNA-dependent RNA polymerase hepatitis C virus protein sequence which is derived from HCV replicon. A discussion of BB7 and related technology can be found in Blight, K. et al. (2000) Science 290:1972-1974. BB7 can be licensed from Apath, LLC (893 North Warson Road, Saint Louis Mo. 63141, USA). BB7 is also referred to as Con1 HCV sequence and discussions of Con1 can be found in the following references: Lohmann, V. et al. (1999) Science 285:110-113; Pietschmann, T. et al. (2001) J. Virol. […]:1252-1264; Lohmann, V. et al. (2001) J. Virol. 75:1437-1449.
as §1, §2, §3, §4, §5, §6, §7, §8, §9

Setting [3] is: BB7 (Con1) NS5B, read-out: BB7 IC50.

Each structure is given as a SMILES string. Where two headings read alike, the source gives them in different places. Bounds are passed on as bounds.

T1 sequence (P26663 2420-2989): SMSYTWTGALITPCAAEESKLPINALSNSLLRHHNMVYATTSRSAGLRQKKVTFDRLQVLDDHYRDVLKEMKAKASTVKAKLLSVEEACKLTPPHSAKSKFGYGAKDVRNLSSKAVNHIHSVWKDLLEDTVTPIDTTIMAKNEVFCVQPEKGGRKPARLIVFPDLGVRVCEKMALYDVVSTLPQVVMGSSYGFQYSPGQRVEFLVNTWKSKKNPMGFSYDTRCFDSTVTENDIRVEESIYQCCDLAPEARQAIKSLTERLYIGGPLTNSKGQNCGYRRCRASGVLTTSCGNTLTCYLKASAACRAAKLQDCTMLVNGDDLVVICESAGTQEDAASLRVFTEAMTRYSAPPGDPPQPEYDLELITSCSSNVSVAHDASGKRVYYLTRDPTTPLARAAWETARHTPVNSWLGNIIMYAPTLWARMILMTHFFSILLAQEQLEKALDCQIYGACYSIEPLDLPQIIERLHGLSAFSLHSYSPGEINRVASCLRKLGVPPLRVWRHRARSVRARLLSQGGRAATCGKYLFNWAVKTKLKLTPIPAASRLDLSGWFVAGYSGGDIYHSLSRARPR

Take `CCC[C@]1(CC(=O)O)OCCc2c1[nH]c1c(C)c(OCCOC)cc(C#N)c21` [Example 44]: the concentration for half-maximal inhibition (IC50) in assay [1] and in assay [2] was less than 0.5 µM in each case.
Regarding `CCCC1(CC(=O)O)OCCc2c1[nH]c1c(C)c(O)cc(C#N)c21` (centres unmarked) [Example 45], the IC50 in assay [1] and in assay [2] was less than 0.5 µM in each case.
As to `CCC[C@]1(CC(=O)O)OCCc2c1[nH]c1c(C)c(O)cc(C#N)c21` [Example 46], the IC50 in assay [1] and in assay [2] was less than 0.5 µM each time.
Consider `CCC[C@@]1(CC(=O)O)OCCc2c1[nH]c1c(C)c(O)cc(C#N)c21` [Example 47], for which the IC50 was greater than 5 µM in assay [1] and 0.5 to 5 µM in assay [2].
With `CCCC1(CC(=O)O)OCCc2c1[nH]c1c(C)c(OCCC3CC3)cc(C#N)c21` (centres unmarked) [Example 48], the IC50 in assay [1] and in assay [2] was less than 0.5 µM in each case.
Consider `CCCC1(CC(=O)O)OCCc2c1[nH]c1c(C)c(OCc3ccccn3)cc(C#N)c21` (centres unmarked) [Example 49], for which the IC50 in assay [1] and in assay [2] was less than 0.5 µM each time.
Regarding `CCCC1(CC(=O)O)OCCc2c1[nH]c1c(C)c(OCCSC)cc(C#N)c21` (centres unmarked) [Example 50], the IC50 in assay [1] and in assay [2] was less than 0.5 µM each time.
`CCCC1(CC(=O)O)OCCc2c1[nH]c1c(C)c(OCc3cccnc3N)cc(C#N)c21` (centres unmarked) [Example 51]: the IC50 in assay [1] and in assay [2] was less than 0.5 µM each time.
Turning to `CCCC1(CC(=O)O)OCCc2c1[nH]c1c(C)c(OCc3ccnc(C)c3)cc(C#N)c21` (centres unmarked) [Example 52], the IC50 in assay [1] and in assay [2] was less than 0.5 µM throughout.
Consider `CCC[C@]1(CC(=O)O)OCCc2c1[nH]c1c(C)c(OCc3ccnc(C)c3)cc(C#N)c21` [Example 53], for which the half-maximal inhibitory concentration (IC50) in assay [1] and in assay [2] was less than 0.5 µM in each case.
Consider `CCCC1(CC(=O)O)OCCc2c1[nH]c1c(C)c(OCc3ccnc(N)c3)cc(C#N)c21` (centres unmarked) [Example 54], for which the IC50 in assay [1] and in assay [2] was less than 0.5 µM in each case.
As for `CCCC1(CC(=O)O)OCCc2c1[nH]c1c(C)c(OCc3cc(C)on3)cc(C#N)c21` (centres unmarked) [Example 56], the IC50 in assay [1] and in assay [2] was less than 0.5 µM each time.
Regarding `CCC[C@@]1(CC(=O)O)OCCc2c1[nH]c1c(C)c(OCc3cc(C)on3)cc(C#N)c21` [Example 57], the IC50 in assay [1] was greater than 5 µM; in assay [2], 0.5 to 5 µM.
With `CCCC1(CC(=O)O)OCCc2c1[nH]c1c(C)c(OCCN3CCCC3)cc(C#N)c21` (centres unmarked) [Example 58], the half-inhibitory concentration (IC50) in assay [1] and in assay [2] was 0.5 to 5 µM throughout.
With `CCCC1(CC(=O)O)OCCc2c1[nH]c1c(C)c(OCc3cccc(N)n3)cc(C#N)c21` (centres unmarked) [Example 59], the 50% inhibitory concentration (IC50) in assay [1] and in assay [2] was less than 0.5 µM in each case.
With `CCCC1(CC(=O)O)OCCc2c1[nH]c1c(C)c(OCc3nccs3)cc(C#N)c21` (centres unmarked) [Example 60], the IC50 in assay [1] and in assay [2] was less than 0.5 µM throughout.
Regarding `CCCC1(CC(=O)O)OCCc2c1[nH]c1c(C)c(OCc3ccnc(C(=O)O)c3)cc(C#N)c21` (centres unmarked) [Example 61], the IC50 in assay [1] and in assay [2] was less than 0.5 µM throughout.
`CCCC1(CC(=O)O)OCCc2c1[nH]c1c(C)c(OCc3cccnc3C)cc(C#N)c21` (centres unmarked) [Example 62]: the IC50 in assay [1] and in assay [2] (setting [3]) was less than 0.5 µM throughout.
`CCCC1(CC(=O)O)OCCc2c1[nH]c1c(C)c(OCc3cccc(C)n3)cc(C#N)c21` (centres unmarked) [Example 63]: the IC50 in assay [1] and in assay [2] (setting [3]) was less than 0.5 µM in each case.
Consider `CCCC1(CC(=O)O)OCCc2c1[nH]c1c(C)c(OCc3cnccn3)cc(C#N)c21` (centres unmarked) [Example 64], for which the IC50 in assay [1] and in assay [2] was less than 0.5 µM in each case.
On to `CCCC1(CC(=O)O)OCCc2c1[nH]c1c(C)c(OCc3ccnc(C(N)=O)c3)cc(C#N)c21` (centres unmarked) [Example 65], for which the half-maximal inhibitory concentration (IC50) in assay [1] and in assay [2] was less than 0.5 µM in each case.
As for `CCCC1(CC(=O)O)OCCc2c1[nH]c1c(C)c(OCc3cc(C)nn3C)cc(C#N)c21` (centres unmarked) [Example 66], the half-maximal inhibitory concentration (IC50) in assay [1] and in assay [2] was less than 0.5 µM throughout.
Consider `CCCC1(CC(=O)O)OCCc2c1[nH]c1c(C)c(OCc3ccc(N4CCOCC4)nc3)cc(C#N)c21` (centres unmarked) [Example 68], for which the IC50 in assay [1] and in assay [2] was less than 0.5 µM in each case.
Turning to `CCCC1(CC(=O)O)OCCc2c1[nH]c1c(C)c(OCc3ccc(N)nc3)cc(C#N)c21` (centres unmarked) [Example 69], the IC50 in assay [1] and in assay [2] was less than 0.5 µM each time.
Consider `CCCC1(CC(=O)O)OCCc2c1[nH]c1c(C)c(OCc3ccc(C)nc3)cc(C#N)c21` (centres unmarked) [Example 70], for which the concentration for half-maximal inhibition (IC50) in assay [1] and in assay [2] was less than 0.5 µM in each case.
As for `CCCC1(CC(=O)O)OCCc2c1[nH]c1c(C)c(OCc3cc[n+]([O-])cc3)cc(C#N)c21` (centres unmarked) [Example 71], the IC50 in assay [1] and in assay [2] was less than 0.5 µM in each case.
For `CCCC1(CC(=O)O)OCCc2c1[nH]c1c(C)c(OCc3csc(C(C)C)n3)cc(C#N)c21` (centres unmarked) [Example 72], the IC50 in assay [1] and in assay [2] (setting [3]) was less than 0.5 µM each time.
`CCCC1(CC(=O)O)OCCc2c1[nH]c1c(C)c(OCc3ccc(C(F)(F)F)nc3)cc(C#N)c21` (centres unmarked) [Example 73]: the IC50 in assay [1] and in assay [2] was less than 0.5 µM throughout.
For `CCCC1(CC(=O)O)OCCc2c1[nH]c1c(C)c(OCC3CCNCC3)cc(C#N)c21` (centres unmarked) [Example 74], the IC50 in assay [1] and in assay [2] was less than 0.5 µM throughout.
As for `CCCC1(CC(=O)O)OCCc2c1[nH]c1c(C)c(OCc3nn(C)cc3Cl)cc(C#N)c21` (centres unmarked) [Example 75], the 50% inhibitory concentration (IC50) in assay [1] and in assay [2] was less than 0.5 µM throughout.
As for `CCCC1(CC(=O)O)OCCc2c1[nH]c1c(C)c(OCc3c[nH]cn3)cc(C#N)c21` (centres unmarked) [Example 76], the IC50 in assay [1] and in assay [2] (setting [3]) was less than 0.5 µM in each case.
As for `CCCC1(CC(=O)O)OCCc2c1[nH]c1c(C)c(OCc3conc3C)cc(C#N)c21` (centres unmarked) [Example 77], the half-maximal inhibitory concentration (IC50) in assay [1] and in assay [2] was less than 0.5 µM each time.
With `CCCC1(CC(=O)O)OCCc2c1[nH]c1c(C)c(OCc3cc(C)n(C)n3)cc(C#N)c21` (centres unmarked) [Example 78], the 50% inhibitory concentration (IC50) in assay [1] and in assay [2] was less than 0.5 µM each time.
Turning to `CCCC1(CC(=O)O)OCCc2c1[nH]c1c(C)c(OCc3cc(C)no3)cc(C#N)c21` (centres unmarked) [Example 79], the 50% inhibitory concentration (IC50) in assay [1] and in assay [2] was less than 0.5 µM in each case.
For `CCCC1(CC(=O)O)OCCc2c1[nH]c1c(C)c(OCc3c(C)noc3C)cc(C#N)c21` (centres unmarked) [Example 80], the IC50 in assay [1] and in assay [2] was less than 0.5 µM each time.
For the molecule `CCCC1(CC(=O)O)OCCc2c1[nH]c1c(C)c(OCc3cc(Br)no3)cc(C#N)c21` (centres unmarked) [Example 81], the concentration for half-maximal inhibition (IC50) in assay [1] and in assay [2] was less than 0.5 µM throughout.
Consider `CCCC1(CC(=O)O)OCCc2c1[nH]c1c(C)c(OCc3ccn(C)n3)cc(C#N)c21` (centres unmarked) [Example 82], for which the IC50 in assay [1] and in assay [2] was less than 0.5 µM each time.

For orientation: IC50 means the concentration that gives 50% inhibition.
